Results from patent US6864271B2, “Synergistic combinations including N-acylated 4-hydroxyphenylamine derivatives” (The Foundation for the LSU Health Sciences Center, priority 2002, dated 2005).

Columns and labels:
[1] = tested on: mice; experiment: abdominal stretch assay (i.p. acetic acid); type: in vivo, mouse; conditions: oral, FIG. 1; for number of abdominal stretches (percentage of control): 55 min before i.p. 10 ml/kg 0.4% acetic acid, counted 10 min
[2] = tested on: C57/b16 mice; experiment: hepatotoxicity study, transaminase activity after oral dosing; conditions: 24 hours after oral dose in corn oil; acetaminophen/SCP-1 3.7 mmole/kg, codeine 50 mg/kg; FIG. 3
[3] = tested on: mice; conditions: cited from earlier work
[4] = tested on: mice; conditions: background statement; cited from earlier work
[5] = tested on: C57/b16 mice; conditions: prior work (Paul et al., 1998; Bazan patents); cited from earlier work
[6] = background statement; cited from earlier work
[7] = background statement; cited from earlier work; remark: listed apart in the source

SMILES | number of abdominal stretches (percentage of control) [1] | GPT activity in serum [2] | LD50 ([3]; mice) [mmol/kg] | analgesic potency compared with acetaminophen ([1]; abdominal stretch assay, mice) | potency compared with acetaminophen, abdominal stretch [4] | hepatotoxicity [5] | toxicity compared with acetaminophen ([3]; Paul et al., 1998) | potency compared with acetaminophen, formalin [6] | potency compared with acetaminophen, Freund's adjuvant-induced inflammation [7]
COc1ccc2c3c1O[C@H]1[C@@H](O)C=C[C@H]4[C@@H](C2)N(C)CC[C@@]341 [codeine, reference compound] | dose-dependent decrease | neither SCP-1 nor codeine, nor the combination of both, produced any significant increase | – | – | – | – | – | – | –
CC(=O)Nc1ccc(O)cc1 [acetaminophen, reference compound] | dose-dependent decrease | – | 3.7 | – | – | – | – | – | –
O=C(CN1C(=O)c2ccccc2S1(=O)=O)Nc1ccc(O)cc1 [SCP-1] | dose-dependent decrease | neither SCP-1 nor codeine, nor the combination of both, produced any significant increase | – | significantly greater than acetaminophen | more potent | lower in hepatotoxicity | lower in toxicity | more potent | more potent
